Several values for one entry are separate records, joined by “and”; a condition that tells them apart may be missing. Equal entries are not always repeated.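 A five-concentration, 48-hour dose response in 96-well plates underlies each endpoint, interpolated linearly between surrounding concentrations. Here, GI50 denotes the concentration required for 50% inhibition of growth. The concentration for full growth arrest is given as TGI.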
Tests used:
Assay in all cases: NCI tumour cell line growth inhibition, 48 h
K-562 leukemia = system: K-562 leukemia
SNB-75 CNS = system: SNB-75 CNS
LOX IMVI melanoma = system: LOX IMVI melanoma
ACHN renal = system: ACHN renal
LXFL 529 NSCLC = system: LXFL 529 NSCLC
DMS 273 small cell lung = system: DMS 273 small cell lung
SW-620 colon = system: SW-620 colon
EKVX NSCLC = system: EKVX NSCLC
OVCAR-5 ovarian = system: OVCAR-5 ovarian
XF 498 CNS = system: XF 498 CNS
HS 578T breast = system: HS 578T breast

SMILES	TGI (K-562 leukemia)	TGI (SNB-75 CNS)	TGI (LOX IMVI melanoma)	TGI (ACHN renal)	TGI (LXFL 529 NSCLC)	TGI (DMS 273 small cell lung)	TGI (SW-620 colon)	TGI (EKVX NSCLC)	TGI (OVCAR-5 ovarian)	TGI (XF 498 CNS)	GI50 (K-562 leukemia)	GI50 (SW-620 colon)	TGI (HS 578T breast)	GI50 (EKVX NSCLC)	GI50 (SNB-75 CNS)	GI50 (ACHN renal)	GI50 (LXFL 529 NSCLC)	GI50 (OVCAR-5 ovarian)
COC(=O)C1=C(C(=O)OC)N(C(C)C)[C@H]2C(C(=O)OC)=C(C(=O)OC)N(C(C)C)[C@@H]12	> 100 µM	> 100 µM	> 100 µM	> 100 µM	> 100 µM	> 100 µM	> 100 µM	> 100 µM	> 100 µM	> 100 µM	–	–	–	–	–	–	–	–
O=c1ncccn1C1OC(CO)C(O)C1F (centres undefined)	> 100 µM	> 100 µM	> 100 µM	> 100 µM	> 100 µM	> 100 µM	> 100 µM	> 100 µM	> 100 µM	> 100 µM	> 100 µM	> 100 µM	–	–	–	–	–	–
COc1cc2c3c(c1OC)/C(=N/OS(=O)(=O)c1ccc(C)cc1)CC3N(S(=O)(=O)c1ccc(C)cc1)CC2 (centres undefined)	> 100 µM	> 100 µM	> 100 µM	> 100 µM	> 100 µM	> 100 µM	> 100 µM	> 100 µM	> 100 µM	> 100 µM	–	–	–	–	–	–	–	–
O=C1c2c(O)ccc(O)c2C(=O)c2c(NCCNCCO)ccc(NCCNCCO)c21	1.71 µM and 1.78 µM	0.122 µM and 0.541 µM and 0.218 µM	0.191 µM and 0.571 µM and 0.706 µM	0.123 µM and 0.783 µM and 0.229 µM	–	0.57 µM	1.91 µM and 1.62 µM and 1.77 µM	3.68 µM and 4.55 µM and 1.28 µM	1.05 µM and 4.75 µM and 2.74 µM	0.0879 µM	0.142 µM	–	0.296 µM and 1.88 µM and 1.03 µM	0.564 µM	–	–	–	–
C/C(N=NC(=S)N1CCCCCC1)=C1\C=CC=CN1O	> 51.3 µM	72.7 µM	> 56.3 µM	67.6 µM	> 100 µM	42.1 µM	> 100 µM	> 94.4 µM	> 100 µM	> 100 µM	–	–	> 100 µM	–	–	–	–	–
CCOC(=O)c1cc(C(=O)O)c(=O)n2c1[nH]c1ccccc12	> 100 µM	> 100 µM	–	> 100 µM	> 100 µM	> 100 µM	> 100 µM	> 100 µM	–	> 100 µM	–	–	–	–	–	–	–	–
CCCC/C=C1\CCC(CN2CCCC2)C1=O (centres undefined)	11.1 µM	32.4 µM	21.7 µM	19.2 µM	3.21 µM	34.3 µM	4.9 µM	–	33.4 µM	29.6 µM	–	–	–	–	–	–	–	–
Cc1ccc(N2C(=O)/C(=C3\Sc4c(nc(C)n(C)c4=O)N3c3ccccc3)SC2=S)cc1	> 100 µM	79.4 µM	> 100 µM	> 100 µM	> 100 µM	> 100 µM	> 100 µM	> 100 µM	> 100 µM	> 100 µM	–	–	–	–	–	–	–	–
CCC1(Cl)C(=O)NC(=O)N(C2CC(O)C(CO)O2)C1N=[N+]=[N-] (centres undefined)	> 100 µM	> 100 µM	> 100 µM	> 100 µM	> 100 µM	> 100 µM	> 100 µM	> 100 µM	> 100 µM	> 100 µM	–	–	–	–	–	–	–	–
COc1cc2c(c(OC)c1OC)-c1ccc(SC)c(=O)cc1[C@@H](NC(=O)c1ccc(F)cc1)CC2	> 100 µM	< 0.01 µM	–	91.3 µM	> 100 µM	44.7 µM	> 100 µM	> 100 µM	> 100 µM	0.0844 µM	< 0.01 µM	< 0.01 µM	–	< 0.01 µM	< 0.01 µM	< 0.01 µM	< 0.01 µM	–
C=C1c2ccccc2N(S(=O)(=O)c2ccc(C)cc2)C12CCCCC2	> 100 µM	> 100 µM	> 100 µM	> 100 µM	> 100 µM	> 100 µM	> 100 µM	> 100 µM	> 100 µM	> 100 µM	–	–	–	–	–	–	–	–
CC(C)(C)c1cc(C(=O)O)c(C(c2ccccc2)c2ccccc2C(=O)O)c(C(=O)O)c1 (centres undefined)	> 100 µM	42.2 µM	> 100 µM	40 µM	> 100 µM	> 100 µM	> 100 µM	> 100 µM	> 100 µM	> 100 µM	–	–	–	–	–	–	–	–
COC(=O)Cc1cc(=O)oc2c1C(=O)CCC2	> 100 µM	> 100 µM	> 100 µM	> 100 µM	> 100 µM	> 100 µM	> 100 µM	> 100 µM	> 100 µM	> 100 µM	–	–	–	–	–	–	–	–
Nc1ccc2c(SCC(=O)Nc3ccccc3-c3ccccc3NC(=O)CSc3c4ccccc4nc4cc(N)ccc34)c3ccccc3nc2c1	28.3 µM	> 96.4 µM	66.2 µM	> 86.6 µM	41.3 µM	> 100 µM	67.4 µM	> 100 µM	> 100 µM	52.8 µM	–	–	> 90 µM	–	–	–	–	–
COc1cc(/C=C2/C(=O)N(C(=O)c3ccccc3O)N=C2C)ccc1O	> 100 µM	–	> 70.6 µM	> 100 µM	> 100 µM	–	> 100 µM	> 77.7 µM	> 100 µM	79.6 µM	–	–	> 100 µM	–	–	–	–	–
C=C1C(=O)C23CC1CCC2C12CO[C@@]3(O)[C@@H](O)C1C(C)(C)C=CC2=O (some centres undefined)	> 100 µM	12.7 µM and 26.4 µM	11.5 µM	1.42 µM and 11.5 µM	–	1.3 µM	10.2 µM	11.8 µM and 34.7 µM	9.96 µM and 40.5 µM	1.42 µM	–	–	81.6 µM	18.7 µM	13.6 µM	3.36 µM	–	25 µM
Nc1nc(Cl)cc(NCCCCCCNc2cc(Cl)nc(N)n2)n1	> 100 µM	> 100 µM	> 100 µM	22.5 µM	> 100 µM	> 100 µM	> 100 µM	> 100 µM	> 100 µM	87 µM	–	–	–	–	–	–	–	–
CCOc1ccccc1NC(=O)CCC(=O)NN	> 100 µM	> 100 µM	> 100 µM	> 100 µM	> 100 µM	> 100 µM	> 100 µM	–	> 100 µM	> 100 µM	–	–	–	–	–	–	–	–
COC(=O)C1=C(C(=O)OC)C(C(=O)OC)C(C(=O)OC)C(C(=O)OC)(C(=O)OC)C(C(=O)OC)=C1C(=O)OC (centres undefined)	22.4 µM	34.5 µM	28.2 µM	28.4 µM	21.8 µM	–	16.8 µM	35.4 µM	35.3 µM	25.3 µM	–	–	75.3 µM	–	–	–	–	–
c1cc2ccc1C1NCCCN1CCN1CCCNC1c1ccc(cc1)C1NCCCN1CCN1CCCNC21 (centres undefined)	> 100 µM	> 100 µM	> 100 µM	> 100 µM	> 100 µM	> 100 µM	48.5 µM	> 100 µM	> 100 µM	> 100 µM	–	–	–	–	–	–	–	–
CN1C=C(C(N)=O)C2CC(O)[C@@](NC(=O)CS(N)(=O)=O)(C(=O)O)C2C1 (some centres undefined)	> 100 µM	7.6 µM	5.58 µM	97.3 µM	–	9.75 µM	> 91.5 µM	> 42.6 µM	6.8 µM	3.21 µM	–	–	–	–	–	–	–	–
